In patent US11384063B2, “Modulators of estrogen receptor proteolysis and associated methods of use” (Arvinas Operations, Inc., priority 2017, dated 2022):

What was measured:
ERα [1] = target: T1, ERα (Homo sapiens, UniProt P03372); assay: Estrogen receptor-alpha (ERα) degradation assay in MCF-7 cells using western blot; format: cell-based; design: assessed for their activity in degrading ERα in MCF-7 cells via western blot; endogenous in cells; host or cells: MCF7 cells; conditions: ER-alpha degradation, MCF7 cells, 3 days of incubation
T1 sequence (P03372 1-595): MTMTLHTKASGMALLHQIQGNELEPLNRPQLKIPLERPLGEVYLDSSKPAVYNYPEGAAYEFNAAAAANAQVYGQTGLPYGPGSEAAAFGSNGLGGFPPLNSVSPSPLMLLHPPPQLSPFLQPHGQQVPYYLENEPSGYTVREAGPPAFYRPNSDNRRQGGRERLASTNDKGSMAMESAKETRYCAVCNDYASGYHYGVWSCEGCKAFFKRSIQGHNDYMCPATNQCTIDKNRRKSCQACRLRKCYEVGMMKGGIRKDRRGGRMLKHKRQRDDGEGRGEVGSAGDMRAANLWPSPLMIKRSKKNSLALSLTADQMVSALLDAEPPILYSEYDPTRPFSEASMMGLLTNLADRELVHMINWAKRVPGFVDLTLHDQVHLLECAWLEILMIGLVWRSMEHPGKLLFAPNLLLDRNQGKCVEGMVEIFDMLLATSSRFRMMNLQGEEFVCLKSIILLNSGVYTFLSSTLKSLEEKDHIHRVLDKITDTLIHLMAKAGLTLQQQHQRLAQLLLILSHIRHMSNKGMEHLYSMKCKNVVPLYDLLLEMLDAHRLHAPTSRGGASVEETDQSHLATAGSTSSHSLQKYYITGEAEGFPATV
Description: Compounds prepared in this application were also analyzed for the degradation of ERα in MCF7 and T47D cells.
Estrogen Receptor-Alpha (ERα) Degradation Assay in MCF-7 Cells Using Western Blot Method for Table 4.
The exemplary novel ERα degraders were assessed for their activity in degrading ERα in MCF-7 cells via western blot. The assay was carried out in the presence of 10% fetal bovine serum (FBS) or high percentage of human or mouse serum.
MCF7 cells were grown in DMEM/F12 with 10% fetal bovine serum and seeded at 24,000 cells per well in 100 μl into 96-well clear tissue culture plates. The following day, the cells were treated with PROTACs in a […] concentration curve with 100 nM being the top concentration and serial dilutions to make the other concentrations (30 nM, 10 nM, 3 nM, 1 nM, and 0.3 nM). At all concentrations, 0.01% DMSO is the final concentration in the well. The following day, the plates are aspirated, washed with 50 μl of cold PBS. The cells are lysed with 50 μl/well 4° C. Cell Lysis Buffer (Catalog #9803; Cell Signaling Technology, Danvers, Mass.) (20 mM Tris-HCL (pH 7.5), 150 mM NaCl, 1 mM […], 1 mM EGTA, 1% Triton, 2.5 mM sodium pyrophosphate, 1 mM B-glycerophosphate, 1 mM sodium vanadate, 1 ug/ml leupeptin). Lysates were clarified at 16,000×g for 10 minutes, and 2 μg of protein was subjected to SDS-PAGE analysis and followed by immunoblotting according to standard protocols. The antibodies used were ERα (Cell Signaling Technologies Catalog #8644), and Tubulin (Sigma Catalog #T9026; St. Louis, Mo.). Detection reagents were Clarity Western ECL substrate (Bio-Rad Catalog #170-5060; Hercules, Calif.).
Alternatively, MCF7 cells were grown in DMEM/F12 with 10% fetal bovine serum and seeded at 24,000 cells per well in 500 μl in 24-well clear tissue culture plates. The following day, the cells were treated with PROTACs in a 5-point concentration curve (100 nM, 33 nM, 11 nM, 3.7 nM, and 1.2 nM) in the presence of 0.01% DMSO. After 72 hours, the wells are aspirated and washed with 500 μl of PBS. The cells are lysed with 100 μl/well 4° C. Cell Lysis Buffer (Catalog #9803; Cell Signaling Technology, Danvers, M A) (20 mM Tris-HCL (pH 7.5), 150 mM NaCl, 1 mM Na2EDTA, 1 mM EGTA, 1% Triton, 2.5 mM sodium pyrophosphate, 1 mM B-glycerophosphate, 1 mM sodium vanadate, 1 ug/ml leupeptin). Lysates were clarified at 16,000×g for 10 minutes, and 2 μg of protein was subjected to SDS-PAGE analysis and followed by immunoblotting according to standard protocols. The antibodies used were ER(X (Cell Signaling Technologies Catalog #8644), and Tubulin (Sigma Catalog #T9026; St. Louis, Mo.). Detection reagents were Clarity Western ECL substrate (Bio-Rad Catalog #170-5060; Hercules, Calif.).

ERα [2] = target: T1, ERα; assay: ERE luciferase reporter gene assay in T47D-KBluc cells (target engagement); format: cell-based; design: T47D human breast cancer cells stably transfected with estrogen responsive element/promoter/luciferase reporter gene; host or cells: T47D-KBluc cells; conditions: 10% FBS, 24 hours, Table 2 VHL centric PROTACs, read-out: IC50
Summary of the method: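 PROTACs were tested at 12 concentrations from 300 nM down to 2 pM in 3-fold steps for 24 h on T47D-KBluc cells with a stable ERE-driven luciferase. Medium was RPMI with 10% FBS, measured at 10 pM estrogen. IC50 came from luminescence after lysis, in duplicate.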

SMILES | DC50 (ERα [1]) [nM] | Dmax (ERα [1]) [%] | IC50 (ERα [2]) [nM]
Cc1ncsc1-c1ccc(CNC(=O)[C@@H]2C[C@@H](O)CN2C(=O)[C@@H](NC(=O)CCc2cccc(-c3ccn(CCOc4ccc(Oc5c(-c6ccc(F)cc6)sc6cc(O)ccc56)cc4)n3)c2)C(C)(C)C)cc1 [Compound 130, (2S,4R)-1-[(2S)-2-[3-(3-[1-[2-(4-[[2-(4-fluorophenyl)-6-hydroxy-1-benzothiophen-3-yl]oxy]phenoxy)ethyl]-1H-pyrazol-3-yl]phenyl)propanamido]-3,3-dimethylbutanoyl]-4-hydroxy-N-[[4-(4-methyl-1,3-thiazol-5-yl)phenyl]methyl]pyrrolidine-2-carboxamide] | 1 to 10 | > 75 | 3.5
Cc1ncsc1-c1ccc(CNC(=O)[C@@H]2C[C@@H](O)CN2C(=O)[C@@H](NC(=O)COCCCCOc2ccc(-c3ccc(Oc4c(-c5ccc(F)cc5)sc5cc(O)ccc45)cc3)nc2)C(C)(C)C)cc1 [Compound 133, (2S,4R)-1-[(2S)-2-[2-(4-[[6-(4-[[2-(4-fluorophenyl)-6-hydroxy-1-benzothiophen-3-yl]oxy]phenyl)pyridin-3-yl]oxy]butoxy)acetamido]-3,3-dimethylbutanoyl]-4-hydroxy-N-[[4-(4-methyl-1,3-thiazol-5-yl)phenyl]methyl]pyrrolidine-2-carboxamide] | 1 to 10 | > 75 | 3.7
Cc1ncsc1-c1ccc(CNC(=O)[C@@H]2C[C@@H](O)CN2C(=O)[C@@H](NC(=O)COCCOCCn2ccc(-c3ccc(Oc4c(-c5ccc(F)cc5)sc5cc(O)ccc45)cc3)cc2=O)C(C)(C)C)cc1 [Compound 134] | 1 to 10 | > 75 | 2.6
Cc1ncsc1-c1ccc(CNC(=O)[C@@H]2C[C@@H](O)CN2C(=O)[C@@H](NC(=O)COCCOCCN2CCC(c3ccc(Oc4c(-c5ccc(F)cc5)sc5cc(O)ccc45)cc3)CC2)C(C)(C)C)cc1 [Compound 135, (2S,4R)-1-[(2S)-2-[2-(2-[2-[4-(4-[[2-(4-fluorophenyl)-6-hydroxy-1-benzothiophen-3-yl]oxy]phenyl)piperidin-1-yl]ethoxy]ethoxy)acetamido]-3,3-dimethylbutanoyl]-4-hydroxy-N-[[4-(4-methyl-1,3-thiazol-5-yl)phenyl]methyl]pyrrolidine-2-carboxamide] | < 1 | > 75 | 0.8
Cc1ncoc1-c1ccc([C@H](C)NC(=O)[C@@H]2C[C@@H](O)CN2C(=O)[C@@H](NC(=O)COCCOCCOCCOc2ccc(Oc3c(-c4ccccc4)sc4cc(O)ccc34)cc2)C(C)(C)C)cc1 [Compound 138, (2S,4R)-1-((S)-2-tert-butyl-14-(4-(6-hydroxy-2-phenylbenzo[b]thiophen-3-yloxy)phenoxy)-4-oxo-6,9,12-trioxa-3-azatetradecane)-4-hydroxy-N-((S)-1-(4-(4-methyloxazol-5-yl)phenyl)ethyl)pyrrolidine-2-carboxamide] | < 1 | > 75 | 0.1

Results, then the compound that gave them:

DC50 (ERα [1]) [nM] | Dmax (ERα [1]) [%] | IC50 (ERα [2]) [nM] | SMILES
< 1 | > 75 | 0.6 | Cc1ncsc1-c1ccc(CNC(=O)[C@@H]2C[C@@H](O)CN2C(=O)[C@@H](NC(=O)COc2cccc(CCN(C)CCOc3ccc(Oc4c(-c5ccc(F)cc5)sc5cc(O)ccc45)cc3)c2)C(C)(C)C)cc1 [Compound 139, (2S,4R)-1-[(2S)-2-[2-[3-(2-[[2-(4-[[2-(4-fluorophenyl)-6-hydroxy-1-benzothiophen-3-yl]oxy]phenoxy)ethyl](methyl)amino]ethyl)phenoxy]acetamido]-3,3-dimethylbutanoyl]-4-hydroxy-N-[[4-(4-methyl-1,3-thiazol-5-yl)phenyl]methyl]pyrrolidine-2-carboxamide]
1 to 10 | > 75 | 11 | Cc1ncsc1-c1ccc(CNC(=O)[C@@H]2C[C@@H](O)CN2C(=O)[C@@H](NC(=O)COCCN2CCN(CCOc3ccc(Oc4c(-c5ccc(Br)cc5)sc5cc(O)ccc45)cc3)CC2)C(C)(C)C)cc1 [Compound 140, (2S,4R)-1-[(2S)-2-[2-(2-[4-[2-(4-[[2-(4-bromophenyl)-6-hydroxy-1-benzothiophen-3-yl]oxy]phenoxy)ethyl]piperazin-1-yl]ethoxy)acetamido]-3,3-dimethylbutanoyl]-4-hydroxy-N-[[4-(4-methyl-1,3-thiazol-5-yl)phenyl]methyl]pyrrolidine-2-carboxamide]
1 to 10 | > 75 | 1.5 | Cc1ncsc1-c1ccc([C@H](C)NC(=O)[C@@H]2C[C@@H](O)CN2C(=O)[C@@H](NC(=O)Cc2ccc(-c3ccn(CCOc4ccc(Oc5c(-c6ccc(F)cc6)sc6cc(O)ccc56)cc4)n3)cc2)C(C)(C)C)cc1 [Compound 141, (2S,4R)-1-[(2S)-2-[2-(4-[1-[2-(4-[[2-(4-fluorophenyl)-6-hydroxy-1-benzothiophen-3-yl]oxy]phenoxy)ethyl]-1H-pyrazol-3-yl]phenyl)acetamido]-3,3-dimethylbutanoyl]-4-hydroxy-N-[(1S)-1-[4-(4-methyl-1,3-thiazol-5-yl)phenyl]ethyl]pyrrolidine-2-carboxamide]
< 1 | > 75 | 0.5 | Cc1ncsc1-c1ccc([C@H](C)NC(=O)[C@@H]2C[C@@H](O)CN2C(=O)[C@@H](NC(=O)COCCOCCN2CCC(c3ccc(Oc4c(-c5ccc(F)cc5)sc5cc(O)ccc45)cc3)CC2)C(C)(C)C)cc1 [Compound 142, (2S,4R)-1-[(2S)-2-[2-(2-[2-[4-(4-[[2-(4-fluorophenyl)-6-hydroxy-1-benzothiophen-3-yl]oxy]phenyl)piperidin-1-yl]ethoxy]ethoxy)acetamido]-3,3-dimethylbutanoyl]-4-hydroxy-N-[(1S)-1-[4-(4-methyl-1,3-thiazol-5-yl)phenyl]ethyl]pyrrolidine-2-carboxamide]
1 to 10 | > 75 | 1 | C[C@H](NC(=O)[C@@H]1C[C@@H](O)CN1C(=O)[C@@H](NC(=O)COCCOCCN1CCC(c2ccc(Oc3c(-c4ccc(F)cc4)sc4cc(O)ccc34)cc2)CC1)C(C)(C)C)c1ccc(C#N)cc1 [Compound 147, (2S,4R)—N-[(1S)-1-(4-cyanophenyl)ethyl]-1-[(2S)-2-[2-(2-[2-[4-(4-[[2-(4-fluorophenyl)-6-hydroxy-1-benzothiophen-3-yl]oxy]phenyl)piperidin-1-yl]ethoxy]ethoxy)acetamido]-3,3-dimethylbutanoyl]-4-hydroxypyrrolidine-2-carboxamide]
1 to 10 | > 75 | 1.4 | C[C@H](NC(=O)[C@@H]1C[C@@H](O)CN1C(=O)[C@@H](NC(=O)Cc1ccc(-c2ccn(CCOc3ccc(Oc4c(-c5ccc(F)cc5)sc5cc(O)ccc45)cc3)n2)cc1)C(C)(C)C)c1ccc(C#N)cc1 [Compound 149]
